The results in this text go back to patent publication US9066945B2, “Ectoparasiticidal active substance combinations” (Bayer Intellectual Property GmbH, priority 2010, dated 2015).

In this experiment the test system is adult fleas (Ctenocephalides felis). The experiment in a line: In vitro contact test with fleas (coated test tubes). Conditions: B-11 alone. From the text:
According to S. R. Colby, Weeds 15 (1967), 20-22, the expected action for a given combination of two active compounds can be calculated as follows: if • X is the kill rate, expressed in % of the untreated control, when employing active compound A at an application rate of m g/ha or in a concentration of m ppm, • Y is the kill rate, expressed in % of the untreated control, when employing active compound B at an application rate of n g/ha or in a concentration of n ppm and • E is the kill rate, expressed in % of the untreated control, when employing active compounds A and B at application rates of m and n g/ha or in a concentration of m and n ppm, • then
In this case, the actually observed kill rate must exceed the value calculated using the above formula for the expected kill rate (E).
In vitro contact tests with ticks and fleas
From Table 1, representatives of important classes of active compounds (component B) were now tested in combination with pyrazine derivatives of the formula (I) according to the invention as component A against arachnids and insects. To this end, roll-necked test tubes were coated with a solution of active compound A or B or a combination of the two in acetone (2 h of swing rotation at 30 rpm in a fume cupboard). […]

Consider demiditraz [B-11], for which the “insecticidal activity in the contact test method” value is reported as “no insecticidal activity”.
